Assay results as given in patent publication US6995185B2, “Δ1-pyrrolines used as pesticides” (Bayer Cropscience AG, priority 2000, dated 2006).

Key:
Assay type in all cases: in vivo
[1] = test system: Meloidogyne icognita; assay: Meloidogyne test; settings: 20 ppm, lettuce in sand, nematicidal action by formation of galls
Description: Meloidogyne Test • Solvent: 30 parts by weight of dimethylformamide • Emulsifier: 1 part by weight of alkylaryl polyglycol ether To produce a suitable preparation of active compound, 1 part by weight of active compound is mixed with the stated amounts of solvent and emulsifier, and the concentrate is diluted with emulsifier-containing water to the desired concentration. Vessels are filled with sand, solution of active compound, Meloidogyne icognita egg/larvae suspension and lettuce seeds. The lettuce seeds germinate and the plants develop. On the roots, galls develop. After the desired period of time, the nematicidal action is determined in % by the formation of galls. 100% means that no galls have been found; 0% means that the number of galls on the treated plants corresponds to that of the untreated control.

[2] = test system: larvae of the mustard beetle (Phaedon cochloeariae); assay: Phaedon larvae test; settings: 1000 ppm, cabbage leaves (Brassica oleracea) dipped
Description: Phaedon larvae Test • Solvent: 30 parts by weight of dimethylformamide • Emulsifier: 1 part by weight of alkylaryl polyglycol ether To produce a suitable preparation of active compound, 1 part by weight of active compound is mixed with the stated amounts of solvent and emulsifier, and the concentrate is diluted with emulsifier-containing water to the desired concentration. Cabbage leaves (Brassica oleracea) are treated by being dipped into the preparation of active compound of the desired concentration and are populated with larvae of the mustard beetle (Phaedon cochloeariae) while the leaves are still moist. After the desired period of time, the kill in % is determined. 100% means that all beetle larvae have been killed; 0% means that none of the beetle larvae have been killed.

[3] = test system: Liriomyza trifolii; assay: Liriomyza test; settings: 1000 ppm, bean plants (Phaseolus vulgaris) dipped
Description: Liriomyza Test • Solvent: 3 parts by weight of dimethylformamide • Emulsifier: 1 part by weight of alkylaryl polyglycol ether To produce a suitable preparation of active compound, 1 part by weight of active compound is mixed with the stated amounts of solvent and emulsifier, and the concentrate is diluted with emulsifier-containing water to the desired concentration. Bean plants (Phaseolus vulgaris) which are infested by eggs and development stages of […] (Liriomyza trifolii) are dipped into a preparation of active compound of the desired concentration. After the desired period of time, the effect in % is determined. 100% means that all […] have been killed; 0% means that none of the […] have been killed.

Row | SMILES | Kill rate in % after 14 days [1] [%] | Kill rate in % after 7 days [2] [%] | other results
1 | COC(=O)C1CC(c2c(F)cccc2F)=NC1c1ccc(-c2ccc(OC(F)(F)F)cc2)cc1 (stereo not drawn) [drawing 146] | 100 | – | –
2 | COC(=O)C1CC(c2c(F)cccc2F)=NC1c1ccc(-c2ccc(OC(F)(F)F)cc2)cc1 (stereo not drawn) [drawing 148] | – | 100 | –
3 | N#CC1CC(c2c(F)cccc2F)=NC1c1ccc(-c2ccc(OC(F)(F)F)cc2)cc1 (stereo not drawn) [drawing 147] | 90 | – | –
4 | COC(=O)C1CC(c2c(F)cccc2F)=NC1c1ccc(-c2ccc(OC(F)(F)F)cc2)cc1 (stereo not drawn) [drawing 145] | – | – | Kill rate in % after 7 days [3]: 100%
5 | COC(=O)C1CC(c2ccccc2Cl)=NC1c1ccc(-c2ccc(OC(F)(F)F)cc2)cc1 (stereo not drawn) [drawing 150] | – | 100 | –
6 | N#CC1CC(c2c(F)cccc2F)=NC1c1ccc(-c2ccc(OC(F)(F)F)cc2)cc1 (stereo not drawn) [drawing 149] | – | 100 | –
